Laboratory results taken from ChEMBL document CHEMBL1129807, “Design and synthesis of 3,5-dialkylamino substituted 8H,10H-3(R),5(R),15b(S)-2,3,6,7-tetrahydro-1,5,3-dioxazepino[3,2-c]indolo[3,2-g]pteridine-7-ones” (Bioorg Med Chem Lett, 1997).

Tested on: L1210
Test: The compound was tested in vitro for growth inhibitory activity against murine leukemia L1210 cells
Format: functional, cell-based
Details: Mus musculus

Structure (SMILES)	IC50 [µM]
CCN(CC)C[C@H]1CO[C@H]2c3nc4c5ccccc5n(C)c4nc3NC(=O)N2[C@@H](CN(CC)CC)O1	17
Cc1c2ccncc2c(C)c2c1[nH]c1ccccc12 [ELLIPTECINE]	0.5
CN1CCN(C[C@H]2CO[C@H]3c4nc5c6ccccc6n(C)c5nc4N(C)C(=O)N3[C@@H](CN3CCN(C)CC3)O2)CC1	20
CCN(CC)C[C@H]1CO[C@H]2c3nc4c5ccccc5n(C)c4nc3N(C)C(=O)N2[C@@H](CN(CC)CC)O1	6
CN1CCC(N(C)C[C@H]2CO[C@H]3c4nc5c6ccccc6n(C)c5nc4N(C)C(=O)N3[C@@H](CN(C)C3CCN(C)CC3)O2)CC1	4
CN(C)CCCN(C)C[C@H]1CO[C@H]2c3nc4c5ccccc5n(C)c4nc3N(C)C(=O)N2[C@@H](CN(C)CCCN(C)C)O1	24
